Measured values taken from US12257247B2 (Monte Rosa Therapeutics AG, priority 2023, dated 2025).
Like-named read-outs stand apart in the source and are kept apart here.

Biological target: T1, VAV1 (Homo sapiens, UniProt P15498+Q96SW2)
T1 construct: A heterozygous VAV1 C-terminal HiBiT knock-in pool was generated at Monte Rosa Therapeutics from a clonal Jurkat cell; endogenous in cells; host or cells: Jurkat clone stably expressing LgBiT, homozygous GSPT1-G575N; heterozygous VAV1-HiBiT knock-in pool
Assay: VAV1 degradation activity, VAV1-HiBiT knock-in Jurkat luminescence assay (Example A, Table 1)
Assay type: cell-based
Conditions: VAV1-HiBiT knock-in Jurkat cells, luminescence read at 6 and 24 hours; for Dmax: Jurkat
Method: Cells were plated at 10,000 cells per well using Multiflo (BioTek) or Multi Drop Combi (Thermo Fisher) in 384-well white solid bottom plates (Corning, 3570BC) in 25 ul volume in RPMI 1640 media (Thermo Fischer, 22400105) containing 10% FBS (Corning, 35-075-CV), 1% Penicillin/Streptomycin (ThermoFisher Scientific, 15140-122), and 1% Endurazine (Nano-Glo Endurazine Live Cell Substrate (Promega, N2571)). Cells were incubated for ˜16 hours at 37° C., 5% CO2. 25 nL of a compound at 10 μM were dosed into the plate using an Echo® 650 liquid handler (Labcyte). Cells were incubated at 37° C., 5% CO2 and signal was read at 6 and 24 hours after compound addition on a Pherastar FSX using “LUM plus” optic module.
Analysis was performed in Scinamic (Scinamic, Cambridge, MA). Luminescence response (R) was calculated by the formula: response=100*(S−N)/(P−N) where S is the signal of the well, N and P the mean negative and positive control values respectively of the same plate. The luminescence response was then fitted in Scinamic using a 3-parameter agonist logistic fit (hillslope=1, EC50>0, top/bottom unconstrained).

[1] = read-out: VAV1 DC50 (nM), class

| SMILES | Dmax (read-out: VAV1 Dmax %) | Dmax (read-out: VAV1 Dmax %, class) | DC50 (read-out: VAV1 DC50) | DC50 [1] |
| --- | --- | --- | --- | --- |
| O=C1CCC(c2cccc(-c3ccc(Cn4ccc(F)cc4=O)cc3)c2Cl)C(=O)N1 (centres unmarked) [Compound 170, 3-(2-chloro-4′-((4-fluoro-2-oxopyridin-1(2H)-yl)methyl)-[1,1′-biphenyl]-3-yl)piperidine-2,6-dione] | 94.2% | > 90% | 69.7 nM | ≤ 100 nM |
| O=C1CCC(c2cccc(-c3ccc(Cn4ccc(C(F)(F)F)cc4=O)cc3)c2Cl)C(=O)N1 (centres unmarked) [Compound 171, 3-(2-chloro-4′-((2-oxo-4-(trifluoromethyl)pyridin-1(2H)-yl)methyl)-[1,1′-biphenyl]-3-yl)piperidine-2,6-dione] | 94.9% | > 90% | 93.8 nM | ≤ 100 nM |
| C#Cc1ccc(C2CCC(=O)NC2=O)c(Cl)c1-c1ccc(OCc2ccn(C)n2)cc1 (centres unmarked) [Compound 172, 3-(2-chloro-6-ethynyl-4′-((1-methyl-1H-pyrazol-3-yl)methoxy)-[1,1′-biphenyl]-3-yl)piperidine-2,6-dione] | 24.7% | < 60% | ≥ 10000 nM | > 1000 nM |
| CC(Oc1ccc(-c2cccc(C3CCC(=O)NC3=O)c2Cl)cc1)c1ccn(C)n1 (centres unmarked) [Compound 173, 3-(2-chloro-4′-(1-(1-methyl-1H-pyrazol-3-yl)ethoxy)-[1,1′-biphenyl]-3-yl)piperidine-2,6-dione] | 88.1% | 60 to 90% | 40.2 nM | ≤ 100 nM |
| CC(c1ccc(-c2cccc(C3CCC(=O)NC3=O)c2Cl)cc1)n1ccccc1=O (centres unmarked) [Compound 174, 3-(2-chloro-4′-(1-(2-oxopyridin-1(2H)-yl)ethyl)-[1,1′-biphenyl]-3-yl)piperidine-2,6-dione] | 92.2% | > 90% | 27.4 nM | ≤ 100 nM |
| COc1ccn(Cc2ccc(-c3cccc(C4CCC(=O)NC4=O)c3Cl)cc2)c(=O)c1 (centres unmarked) [Compound 175, 3-[2-chloro-3-[4-[(4-methoxy-2-oxo-1-pyridyl)methyl]phenyl]phenyl]piperidine-2,6-dione] | 87.1% | 60 to 90% | 31.6 nM | ≤ 100 nM |
| Cn1ccc(Cc2ccc(-c3cccc(C4CCC(=O)NC4=O)c3Cl)cc2)n1 (centres unmarked) [Compound 176, 3-(2-chloro-4′-((1-methyl-1H-pyrazol-3-yl)methyl)-[1,1′-biphenyl]-3-yl)piperidine-2,6-dione] | 98% | > 90% | 4.41 nM | ≤ 100 nM |
| Cn1ccc(COc2ccc(-c3cccc(C4CCC(=O)NC4=O)c3Cl)c(Cl)c2)n1 (centres unmarked) [Compound 177, 3-(2,2′-dichloro-4′-((1-methyl-1H-pyrazol-3-yl)methoxy)-[1,1′-biphenyl]-3-yl)piperidine-2,6-dione] | 29.2% | < 60% | ≥ 10000 nM | > 1000 nM |
| O=C1CCC(c2cccc(-c3ccc(CCCn4ccccc4=O)cc3)c2Cl)C(=O)N1 (centres unmarked) [Compound 178, 3-(2-chloro-4′-(3-(2-oxopyridin-1(2H)-yl)propyl)-[1,1′-biphenyl]-3-yl)piperidine-2,6-dione] | 81.1% | 60 to 90% | 239 nM | 100 to 1000 nM |
| Cn1ccc(COc2ccc(-c3c(C#N)ccc(C4CCC(=O)NC4=O)c3Cl)cc2)n1 (centres unmarked) [Compound 179] | 32.8% | < 60% | ≥ 10000 nM | > 1000 nM |
| Cn1ccc(CNc2ccc(-c3cccc(C4CCC(=O)NC4=O)c3Cl)cc2)n1 (centres unmarked) [Compound 180, 3-(2-chloro-4′-(((1-methyl-1H-pyrazol-3-yl)methyl)amino)-[1,1′-biphenyl]-3-yl)piperidine-2,6-dione] | 88.8% | 60 to 90% | 11.5 nM | ≤ 100 nM |
| O=C1CCC(c2cccc(-c3ccc(C(=O)N4CCCC4)cc3)c2Cl)C(=O)N1 (centres unmarked) [Compound 181, 3-(2-chloro-4′-(pyrrolidine-1-carbonyl)-[1,1′-biphenyl]-3-yl)piperidine-2,6-dione] | 85.9% | 60 to 90% | 33.9 nM | ≤ 100 nM |
| O=C1CCC(c2cccc(-c3ccc(CCn4ccccc4=O)cc3)c2Cl)C(=O)N1 (centres unmarked) [Compound 182, 3-(2-chloro-4′-(2-(2-oxopyridin-1(2H)-yl)ethyl)-[1,1′-biphenyl]-3-yl)piperidine-2,6-dione] | 89.3% | 60 to 90% | 11.7 nM | ≤ 100 nM |
| Cn1cnc(COc2ccc(-c3cccc(C4CCC(=O)NC4=O)c3Cl)cc2)c1 (centres unmarked) [Compound 183, 3-(2-chloro-4′-((1-methyl-1H-imidazol-4-yl)methoxy)-[1,1′-biphenyl]-3-yl)piperidine-2,6-dione] | 95.7% | > 90% | 5.55 nM | ≤ 100 nM |
| Cc1cccc(=O)n1Cc1ccc(-c2cccc(C3CCC(=O)NC3=O)c2Cl)cc1 (centres unmarked) [Compound 184, 3-(2-chloro-4′-((6-methyl-2-oxopyridin-1(2H)-yl)methyl)-[1,1′-biphenyl]-3-yl)piperidine-2,6-dione] | 92.1% | > 90% | 11.6 nM | ≤ 100 nM |
| O=C1CCC(c2cccc(-c3ccc(-n4ccccc4=O)cc3)c2Cl)C(=O)N1 (centres unmarked) [Compound 185, 3-(2-chloro-4′-(2-oxopyridin-1(2H)-yl)-[1,1′-biphenyl]-3-yl)piperidine-2,6-dione] | 97% | > 90% | 7 nM | ≤ 100 nM |
| Cn1cncc1COc1ccc(-c2cccc(C3CCC(=O)NC3=O)c2Cl)cc1 (centres unmarked) [Compound 186, 3-(2-chloro-4′-((1-methyl-1H-imidazol-5-yl)methoxy)-[1,1′-biphenyl]-3-yl)piperidine-2,6-dione] | 95.3% | > 90% | 13.6 nM | ≤ 100 nM |
| Cc1cccn(Cc2ccc(-c3cccc(C4CCC(=O)NC4=O)c3Cl)cc2)c1=O (centres unmarked) [Compound 187, 3-(2-chloro-4′-((3-methyl-2-oxopyridin-1(2H)-yl)methyl)-[1,1′-biphenyl]-3-yl)piperidine-2,6-dione] | 94.2% | > 90% | 9.75 nM | ≤ 100 nM |
| Cc1ccc(=O)n(Cc2ccc(-c3cccc(C4CCC(=O)NC4=O)c3Cl)cc2)c1 (centres unmarked) [Compound 188, 3-(2-chloro-4′-((5-methyl-2-oxopyridin-1(2H)-yl)methyl)-[1,1′-biphenyl]-3-yl)piperidine-2,6-dione] | 95% | > 90% | 7.16 nM | ≤ 100 nM |
| Cc1ccn(Cc2ccc(-c3cccc(C4CCC(=O)NC4=O)c3Cl)cc2)c(=O)c1 (centres unmarked) [Compound 189, 3-(2-chloro-4′-((4-methyl-2-oxopyridin-1(2H)-yl)methyl)-[1,1′-biphenyl]-3-yl)piperidine-2,6-dione] | 91.4% | > 90% | 33.7 nM | ≤ 100 nM |
| O=C1CCC(c2cccc(-c3cccc(COC4CCOC4)c3)c2Cl)C(=O)N1 (centres unmarked) [Compound 190, 3-(2-chloro-3′-(((tetrahydrofuran-3-yl)oxy)methyl)-[1,1′-biphenyl]-3-yl)piperidine-2,6-dione] | 21.5% | < 60% | 3330 nM | > 1000 nM |
| Cn1cc(CNc2ccc(-c3cccc(C4CCC(=O)NC4=O)c3Cl)cc2)cn1 (centres unmarked) [Compound 193, 3-(2-chloro-4′-(((1-methyl-1H-pyrazol-4-yl)methyl)amino)-[1,1′-biphenyl]-3-yl)piperidine-2,6-dione] | 91.7% | > 90% | 13.3 nM | ≤ 100 nM |
| Cn1ccc(CCc2ccc(-c3cccc(C4CCC(=O)NC4=O)c3Cl)cc2)n1 (centres unmarked) [Compound 194, 3-(2-chloro-4′-(2-(1-methyl-1H-pyrazol-3-yl)ethyl)-[1,1′-biphenyl]-3-yl)piperidine-2,6-dione] | 94.1% | > 90% | 18.4 nM | ≤ 100 nM |
| O=C1CCC(c2cccc(-c3ccc(N4CCC4)cc3)c2Cl)C(=O)N1 (centres unmarked) [Compound 195, 3-(4′-(azetidin-1-yl)-2-chloro-[1,1′-biphenyl]-3-yl)piperidine-2,6-dione] | 79.4% | 60 to 90% | 552 nM | 100 to 1000 nM |
| Cn1ccc(NCc2ccc(-c3cccc(C4CCC(=O)NC4=O)c3Cl)cc2)n1 (centres unmarked) [Compound 196, 3-(2-chloro-4′-(((1-methyl-1H-pyrazol-3-yl)amino)methyl)-[1,1′-biphenyl]-3-yl)piperidine-2,6-dione] | 95.6% | > 90% | 9.34 nM | ≤ 100 nM |
| CC(C)(c1ccc(-c2cccc(C3CCC(=O)NC3=O)c2Cl)cc1)N1CCCCC1=O (centres unmarked) [Compound 197, 3-(2-chloro-4′-(2-(2-oxopiperidin-1-yl)propan-2-yl)-[1,1′-biphenyl]-3-yl)piperidine-2,6-dione] | 88.8% | 60 to 90% | 33 nM | ≤ 100 nM |
